From ChEMBL document CHEMBL2331419, “Benzimidazole-carboxamides as potent and bioavailable stearoyl-CoA desaturase (SCD1) inhibitors from ligand-based virtual screening and chemical optimization” (Bioorg Med Chem Lett, 2013)
One block for each compound: values may come before it.

Tests used:
[1] = molecular target: T1, Acyl-CoA desaturase 1 (Rattus norvegicus, UniProt P07308); assay: Inhibition of SCD1 in Wistar rat liver microsomes using [14C] stearic acid as substrate incubated for 10 mins prior to substrate addition measured after 1 hr by chromatographic analysis; set-up: species or system Microsome
T1 sequence (P07308 whole entry): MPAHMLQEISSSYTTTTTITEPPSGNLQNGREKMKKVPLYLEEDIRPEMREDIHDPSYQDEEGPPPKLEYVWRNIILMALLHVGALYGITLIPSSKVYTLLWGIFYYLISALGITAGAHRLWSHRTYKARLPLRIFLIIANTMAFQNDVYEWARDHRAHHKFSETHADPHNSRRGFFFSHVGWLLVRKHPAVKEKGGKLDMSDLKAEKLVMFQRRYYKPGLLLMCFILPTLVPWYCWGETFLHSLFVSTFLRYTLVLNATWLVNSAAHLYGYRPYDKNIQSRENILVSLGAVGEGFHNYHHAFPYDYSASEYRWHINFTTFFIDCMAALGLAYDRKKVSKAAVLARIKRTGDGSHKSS

[2] = molecular target: T2, Stearoyl-CoA desaturase (Homo sapiens, UniProt O00767); assay: Inhibition of SCD1 in human HepG2 cells; assay type: cell-based
T2 sequence (O00767 whole entry): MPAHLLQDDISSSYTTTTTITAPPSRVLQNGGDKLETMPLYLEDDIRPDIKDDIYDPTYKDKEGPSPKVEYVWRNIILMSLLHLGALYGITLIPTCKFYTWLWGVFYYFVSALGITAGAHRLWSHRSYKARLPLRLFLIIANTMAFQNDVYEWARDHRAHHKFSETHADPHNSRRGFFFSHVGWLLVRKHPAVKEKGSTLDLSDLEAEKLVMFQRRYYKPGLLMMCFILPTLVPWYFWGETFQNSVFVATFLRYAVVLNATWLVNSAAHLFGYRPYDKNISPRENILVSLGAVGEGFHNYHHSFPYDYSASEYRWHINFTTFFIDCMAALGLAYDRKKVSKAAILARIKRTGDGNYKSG

[3] = test system: HepG2; assay: Inhibition of ACC phosphorylation in human HepG2 cells at 10 uM by Western blotting analysis relative to control; assay type: cell-based
[4] = molecular target: T1, Acyl-CoA desaturase 1; assay: Inhibition of SCD1 in rat H42E cells; assay type: cell-based
[5] = Drug metabolism in rat; assay type: ADME, organism-based; details: in vivo, read-out: Drug metabolism
[6] = Half life in Zucker diabetic fatty rat at 5 mg/kg, iv; assay type: ADME, organism-based; set-up: dose 5 mg/kg, route intravenous; details: in vivo
[7] = Lipophilicity, log D of the compound at pH 7.4; assay type: physicochemical; details: buffer
[8] = test system: Rattus norvegicus; assay: Volume of distribution at steady state in Zucker diabetic fatty rat at 5 mg/kg, iv; assay type: ADME, organism-based; set-up: dose 5 mg/kg, route intravenous; details: in vivo
[9] = Plasma clearance in Zucker diabetic fatty rat at 5 mg/kg, iv; assay type: ADME, organism-based; set-up: dose 5 mg/kg, route intravenous
[10] = Permeability across human Caco2 cells; assay type: ADME, cell-based; details: Caco-2, read-out: permeability
[11] = Drug metabolism in human in presence of ketoconazole; assay type: ADME, organism-based; details: in vivo, with ketoconazole, read-out: Drug metabolism
[12] = Cmax in Zucker diabetic fatty rat at 30 mg/kg, po after 4 hrs; assay type: ADME, organism-based; set-up: dose 30 mg/kg, route oral; details: in vivo
[13] = Apparent half life in Zucker diabetic fatty rat at 30 mg/kg, po; assay type: ADME, organism-based; set-up: dose 30 mg/kg, route oral; details: in vivo, read-out: t1/2(app) (converted)
[14] = test system: Rattus norvegicus; assay: In vivo inhibition of SCD1 in Zucker diabetic fatty rat assessed as decrease in serum fatty acid desaturation index at 30 mg/kg, po after 6 hrs relative to vehicle-treated control; assay type: functional
[15] = Drug metabolism in human in presence of quinidine; assay type: ADME, organism-based; details: in vivo, with quinidine, read-out: Drug metabolism
[16] = Drug metabolism in human; assay type: ADME, organism-based; details: in vivo, read-out: Drug metabolism
[17] = Oral bioavailability in Zucker diabetic fatty rat at 30 mg/kg; assay type: ADME, organism-based; details: in vivo
[18] = Drug metabolism in mouse; assay type: ADME, organism-based; details: in vivo, read-out: Drug metabolism

SMILES: CC(C)CCNC(=O)c1ccc2nc(-c3ccc(Oc4ccccc4)cc3)[nH]c2c1
IC50 [1]: 21600 nM

SMILES: O=C(NCc1nccs1)c1ccc2nc(-c3ccc(Oc4ccccc4)cc3)[nH]c2c1
IC50 [1]: 6510 nM

SMILES: O=C(CCc1ccccc1)Nc1ccc(N2CCN(C(=O)c3ccccc3C(F)(F)F)CC2)nc1
IC50 [1]: 2260 nM

SMILES: O=C(NCCC1CC1)c1ccc2[nH]c(-c3ccc(Oc4ccccc4Cl)cc3)nc2c1
inhibition [3]: 140%

SMILES: O=C(NCc1ccc(Cl)s1)c1ccc2[nH]c(-c3ccc(C(=O)c4ccccc4C(F)(F)F)cc3)nc2c1
IC50 [2]: 157 nM | IC50 [4]: 182 nM | metabolised [5]: 40% | half-life [6]: 6.5 h | IC50 [1]: 136 nM | logD [7]: 3.94 | Vdss [8]: 1.7 L/kg | clearance [9]: 4.17 mL/min/kg | Papp [10]: 5.26 ×10⁻⁶ cm/s | metabolised [11]: 10% | Cmax [12]: 1950 ng/mL | half-life [13]: 8.4 h | inhibition in vivo at 30 mg/kg [14]: 84.4% | metabolised [15]: 40% | metabolised [16]: 45% | bioavailability [17]: 25%

SMILES: CC(C)CCNC(=O)c1ccc2nc(-c3ccc(C(=O)c4ccccc4C(F)(F)F)cc3)[nH]c2c1
IC50 [1]: 3860 nM

SMILES: CCn1c(COCc2ccccc2)nc2cc(C(=O)NCCc3ccc(O)cc3)ccc21
IC50 [1]: 5000 nM

SMILES: O=C(NCc1ccccc1)c1ccc2nc(-c3ccc(Oc4ccccc4)cc3)[nH]c2c1
IC50 [1]: 7810 nM

SMILES: O=C(NCCCc1ccccc1)c1ccc2nc(-c3ccc(Oc4ccccc4C(F)(F)F)cc3)[nH]c2c1
IC50 [1]: > 100000 nM

SMILES: O=C(NCCC1CC1)c1ccc2nc(-c3ccc(Oc4ccccc4Cl)cc3)[nH]c2c1
IC50 [2]: 2340 nM | metabolised [5]: 38% | IC50 [1]: 966 nM | Papp [10]: 16.7 ×10⁻⁶ cm/s | metabolised [11]: 45% | metabolised [15]: 58% | metabolised [16]: 62% | metabolised [18]: 49%

SMILES: O=C(NCc1ccc(Cl)s1)c1ccc2nc(-c3ccc(Oc4ccccc4C(F)(F)F)cc3)[nH]c2c1
IC50 [2]: 439 nM | IC50 [1]: 142 nM

SMILES: O=C(Nc1nccs1)c1ccc2nc(-c3ccc(C(=O)c4ccccc4C(F)(F)F)cc3)[nH]c2c1
IC50 [1]: 4520 nM

SMILES: O=C(NCC1CC1)c1ccc2[nH]c(-c3ccc(Oc4ccccc4)cc3)nc2c1
IC50 [1]: 16600 nM

SMILES: O=C(NCCC1CC1)c1ccc2nc(-c3ccc(Oc4ccccc4C(F)(F)F)cc3)[nH]c2c1
IC50 [1]: 539 nM

SMILES: O=C(NCc1nccs1)c1ccc2nc(-c3ccc(Oc4ccccc4Cl)cc3)[nH]c2c1
IC50 [2]: 1160 nM | IC50 [4]: 305 nM | metabolised [5]: 38% | IC50 [1]: 115 nM | logD [7]: 2.24 | Papp [10]: 6.36 ×10⁻⁶ cm/s | metabolised [11]: 16% | metabolised [15]: 40% | metabolised [16]: 45% | metabolised [18]: 23%

SMILES: O=C(NCc1ccc(Cl)s1)c1cccc(-c2nc3cc(Oc4ccccc4C(F)(F)F)ccc3[nH]2)c1
IC50 [1]: 2210 nM

SMILES: O=C(NCc1ccc(Cl)s1)c1ccc2[nH]c(-c3ccc(Oc4ccccc4)cc3)nc2c1
IC50 [1]: 3700 nM

SMILES: O=C(NCc1cccc(C(F)(F)F)c1)c1ccc2[nH]c(-c3ccc(Oc4ccccc4)cc3)nc2c1
IC50 [1]: 11800 nM

SMILES: O=C(NCc1cccs1)c1ccc2nc(-c3ccc(C(=O)c4ccccc4C(F)(F)F)cc3)[nH]c2c1
IC50 [1]: 99 nM

SMILES: CNC(=O)c1ccc2nc(-c3ccc(Oc4ccccc4C(F)(F)F)cc3)[nH]c2c1
IC50 [1]: 27200 nM

More lines, now with the values ahead:

IC50 [1]: 434 nM
SMILES: CC(C)CCNC(=O)c1ccc2nc(-c3ccc(Oc4ccccc4C(F)(F)F)cc3)[nH]c2c1

IC50 [1]: > 100000 nM
SMILES: O=C(c1ccccc1)c1ccc2nc(-c3ccc(C(=O)c4ccccc4C(F)(F)F)cc3)[nH]c2c1

IC50 [2]: 313 nM | IC50 [1]: 212 nM
SMILES: O=C(NCc1nccs1)c1ccc2[nH]c(-c3ccc(Oc4ccccc4C(F)(F)F)cc3)nc2c1

IC50 [1]: 24900 nM
SMILES: O=C(NCCC1CC1)c1ccc2nc(-c3ccc(Oc4ccccc4)cc3)[nH]c2c1

IC50 [2]: 179 nM | IC50 [4]: 104 nM | IC50 [1]: 78 nM
SMILES: O=C(NCc1nccs1)c1ccc2[nH]c(-c3ccc(C(=O)c4ccccc4C(F)(F)F)cc3)nc2c1

IC50 [1]: 38300 nM
SMILES: CCOC(=O)c1ccc2[nH]c(-c3ccc(Oc4ccccc4C(F)(F)F)cc3)nc2c1

IC50 [1]: 2720 nM
SMILES: CC(C)CCNC(=O)c1ccc2[nH]c(-c3ccc(Oc4ccccc4Cl)cc3)nc2c1

IC50 [1]: 28300 nM
SMILES: O=C(NCCCc1ccccc1)c1ccc2nc(-c3ccc(Oc4ccccc4)cc3)[nH]c2c1

IC50 [2]: 295 nM | IC50 [4]: 14 nM | metabolised [5]: 20% | IC50 [1]: 82 nM | Papp [10]: 18.2 ×10⁻⁶ cm/s | metabolised [11]: 46% | metabolised [15]: 60% | metabolised [16]: 71%
SMILES: OC(c1ccc2[nH]c(-c3ccc(OCc4ccccc4)cc3)nc2c1)c1ccccc1C(F)(F)F (racemic)

IC50 [1]: 15800 nM
SMILES: O=C(c1ccccc1)c1ccc2nc(-c3ccc(Oc4ccccc4)cc3)[nH]c2c1

IC50 [1]: 3200 nM
SMILES: O=C(Cc1cccs1)Nc1ccc2nc(N3CCN(C(=O)c4ccccc4C(F)(F)F)CC3)[nH]c2c1

IC50 [1]: > 100000 nM
SMILES: O=C(c1ccccc1)c1ccc2nc(-c3ccc(-c4ccccc4)cc3)[nH]c2c1

IC50 [2]: 1360 nM | metabolised [5]: 31% | IC50 [1]: 832 nM | Papp [10]: 11.4 ×10⁻⁶ cm/s | metabolised [11]: 41% | metabolised [15]: 62% | metabolised [16]: 64% | metabolised [18]: 36%
SMILES: O=C(NCc1ccc(Cl)s1)c1ccc2nc(-c3ccc(Oc4ccccc4Cl)cc3)[nH]c2c1

IC50 [1]: 13300 nM
SMILES: O=C(c1ccc2nc(-c3ccc(OCc4ccccc4)cc3)[nH]c2c1)c1ccccc1C(F)(F)F

IC50 [1]: 1300 nM
SMILES: O=C(NCc1nccs1)c1cccc(-c2nc3cc(Oc4ccccc4C(F)(F)F)ccc3[nH]2)c1

IC50 [1]: 3760 nM | logD [7]: 3.68
SMILES: O=C(NCc1cccs1)c1ccc2nc(-c3ccc(Oc4ccccc4)cc3)[nH]c2c1
